{"source": "paper PMC9604400", "about": "“Synthesis, Anticancer and Antitubercular Properties of New Chalcones and Their Nitrogen-Containing Five-Membered Heterocyclic Hybrids Bearing Sulfonamide Moiety” (International Journal of Molecular Sciences, 2022)", "experiment_in_all_cases": "microbe, parasite or virus in culture", "key": {"[1]": {"system": "M. tuberculosis Beijing", "assay_type": "cell-based", "conditions": "Mycobacterium tuberculosis"}, "[2]": {"system": "M. tuberculosis ATCC 35838", "assay_type": "cell-based, Mycobacterium tuberculosis"}, "[3]": {"system": "M. tuberculosis Haarlem", "assay_type": "cell-based", "conditions": "Mycobacterium tuberculosis"}, "[4]": {"system": "M. tuberculosis Orphan strain", "assay_type": "cell-based", "conditions": "Mycobacterium tuberculosis"}, "[5]": {"system": "M. tuberculosis ATCC 35822", "assay_type": "cell-based", "conditions": "Mycobacterium tuberculosis, ATCC35822"}, "[6]": {"system": "M. tuberculosis LAM9 SIT 42", "assay_type": "cell-based, Mycobacterium tuberculosis"}, "[7]": {"conditions": "Mycobacterium tuberculosis, ATCC35838, f. M. tuberculosis ATCC 35838 (rifampicin-resistant)"}, "[8]": {"conditions": "Mycobacterium tuberculosis, LAM9SIT42, c. M. tuberculosis LAM9 SIT 42"}, "[9]": {"conditions": "f. M. tuberculosis ATCC 35838 (rifampicin-resistant)"}}, "note": "Marks after values point to notes of the source that are not given here.", "data": [{"smiles": "COc1cc(OC)c(S(N)(=O)=O)cc1C(=O)C=Cc1ccccc1", "note": "[Compound 17a, 5-Cinnamoyl-2,4-dimethoxybenzenesulfonamide]", "values": [{"measurement": "MIC", "setting": "[1]", "result": 29, "unit": "µM"}, {"measurement": "MIC", "setting": "[2]; [7]", "result": 29, "unit": "µM"}, {"measurement": "MIC", "setting": "[3]", "result": "> 29", "unit": "µM"}, {"measurement": "MIC", "setting": "[4]", "result": 29, "unit": "µM"}, {"measurement": "MIC", "setting": "[5]", "result": "> 29", "unit": "µM"}, {"measurement": "MIC", "setting": "[6]; [8]", "result": "> 29", "unit": "µM"}]}, {"smiles": "COc1cc(OC)c(S(N)(=O)=O)cc1C(=O)/C=C/c1ccc2c(c1)OCO2", "note": "[Compound 17f, (E)-5-(3-(Benzo[d][1,3]dioxol-5-yl)acryloyl)-2,4-dimethoxybenzenesulfonamide]", "values": [{"measurement": "MIC", "setting": "[1]", "result": "> 2", "unit": "µM"}, {"measurement": "MIC", "setting": "[2]; [7]", "result": "> 25", "unit": "µM"}, {"measurement": "MIC", "setting": "[3]", "result": "> 2", "unit": "µM"}, {"measurement": "MIC", "setting": "[4]", "result": "> 2", "unit": "µM"}, {"measurement": "MIC", "setting": "[5]", "result": "> 25", "unit": "µM"}, {"measurement": "MIC", "setting": "[6]; [8]", "result": "> 2", "unit": "µM"}]}, {"smiles": "COc1ccc(C(=O)C=Cc2ccccc2)cc1S(=O)(=O)NNC(=O)c1ccncc1", "note": "[Compound 19a, 5-Cinnamoyl-N’-isonicotinoyl-2-methoxybenzenesulfonohydrazide]", "values": [{"measurement": "MIC", "setting": "[1]", "result": 23, "unit": "µM"}, {"measurement": "MIC", "setting": "[2]; [7]", "result": "< 12", "unit": "µM"}, {"measurement": "MIC", "setting": "[2]; [9]", "result": "<11", "unit": "µM"}, {"measurement": "MIC", "setting": "[3]", "result": "> 23", "unit": "µM"}, {"measurement": "MIC", "setting": "[4]", "result": "> 23", "unit": "µM"}, {"measurement": "MIC", "setting": "[5]", "result": "> 23", "unit": "µM"}, {"measurement": "MIC", "setting": "[6]; [8]", "result": 23, "unit": "µM"}]}, {"smiles": "COc1ccc(/C=C/C(=O)c2ccc(OC)c(S(=O)(=O)NNC(=O)c3ccncc3)c2)cc1", "note": "[Compound 19d, (E)-N’-Isonicotinoyl-2-methoxy-5-(3-(4-methoxyphenyl)acryloyl)benzenesulfonohydrazide]", "values": [{"measurement": "MIC", "setting": "[1]", "result": 21, "unit": "µM"}, {"measurement": "MIC", "setting": "[2]; [7]", "result": 21, "unit": "µM"}, {"measurement": "MIC", "setting": "[3]", "result": "> 21", "unit": "µM"}, {"measurement": "MIC", "setting": "[4]", "result": 21, "unit": "µM"}, {"measurement": "MIC", "setting": "[5]", "result": "> 21", "unit": "µM"}, {"measurement": "MIC", "setting": "[6]; [8]", "result": 21, "unit": "µM"}]}, {"smiles": "COc1cc(OC)c(S(=O)(=O)NNC(=O)c2ccncc2)cc1C(=O)C=Cc1ccccc1", "note": "[Compound 20a, 5-Cinnamoyl-N’-isonicotinoyl-2,4-dimethoxybenzenesulfonohydrazide]", "values": [{"measurement": "MIC", "setting": "[1]", "result": "< 11", "unit": "µM"}, {"measurement": "MIC", "setting": "[2]; [7]", "result": "< 12", "unit": "µM"}, {"measurement": "MIC", "setting": "[2]; [9]", "result": "<11 * µM"}, {"measurement": "MIC", "setting": "[3]", "result": "> 21", "unit": "µM"}, {"measurement": "MIC", "setting": "[4]", "result": "> 21", "unit": "µM"}, {"measurement": "MIC", "setting": "[5]", "result": "> 21", "unit": "µM"}, {"measurement": "MIC", "setting": "[6]; [8]", "result": 21, "unit": "µM"}]}, {"smiles": "COc1ccc(/C=C/C(=O)c2cc(S(=O)(=O)NNC(=O)c3ccncc3)c(OC)cc2OC)cc1", "note": "[Compound 20d, (E)-N’-Isonicotinoyl-2,4-dimethoxy-5-(3-(4-methoxyphenyl)acryloyl)benzenesulfonohydrazide]", "values": [{"measurement": "MIC", "setting": "[1]", "result": "> 20", "unit": "µM"}, {"measurement": "MIC", "setting": "[2]; [7]", "result": 20, "unit": "µM"}, {"measurement": "MIC", "setting": "[3]", "result": "> 20", "unit": "µM"}, {"measurement": "MIC", "setting": "[4]", "result": "> 20", "unit": "µM"}, {"measurement": "MIC", "setting": "[5]", "result": "> 20", "unit": "µM"}, {"measurement": "MIC", "setting": "[6]; [8]", "result": "> 20", "unit": "µM"}]}, {"smiles": "COc1cc(OC)c(S(=O)(=O)NNC(=O)c2ccncc2)cc1C(=O)/C=C/c1cc(OC)c(OC)c(OC)c1", "note": "[Compound 20e, (E)-N’-Isonicotinoyl-2,4-dimethoxy-5-(3-(3,4,5-trimethoxyphenyl)acryloyl)benzenesulfonohydrazide]", "values": [{"measurement": "MIC", "setting": "[1]", "result": "< 9", "unit": "µM"}, {"measurement": "MIC", "setting": "[2]; [7]", "result": "< 12", "unit": "µM"}, {"measurement": "MIC", "setting": "[2]; [9]", "result": "<9.0 * µM"}, {"measurement": "MIC", "setting": "[3]", "result": "> 18", "unit": "µM"}, {"measurement": "MIC", "setting": "[4]", "result": "> 18", "unit": "µM"}, {"measurement": "MIC", "setting": "[5]", "result": "> 18", "unit": "µM"}, {"measurement": "MIC", "setting": "[6]; [8]", "result": 8.97, "unit": "µM"}, {"measurement": "MIC", "setting": "[6]; c. M. tuberculosis LAM9 SIT 42", "result": "<9.0 * µM"}]}, {"smiles": "COc1cc(OC)c(S(=O)(=O)NNC(=O)c2ccncc2)cc1C(=O)/C=C/c1ccc2c(c1)OCO2", "note": "[Compound 20f, (E)-5-(3-(Benzo[d][1,3]dioxol-5-yl)acryloyl)-N’-isonicotinoyl-2,4-dimethoxybenzenesulfonohydrazide]", "values": [{"measurement": "MIC", "setting": "[1]", "result": 20, "unit": "µM"}, {"measurement": "MIC", "setting": "[2]; [7]", "result": "< 12", "unit": "µM"}, {"measurement": "MIC", "setting": "[2]; [9]", "result": "<10 * µM"}, {"measurement": "MIC", "setting": "[3]", "result": "> 20", "unit": "µM"}, {"measurement": "MIC", "setting": "[4]", "result": "> 20", "unit": "µM"}, {"measurement": "MIC", "setting": "[5]", "result": "> 20", "unit": "µM"}, {"measurement": "MIC", "setting": "[6]; [8]", "result": 9.77, "unit": "µM"}, {"measurement": "MIC", "setting": "[6]; c. M. tuberculosis LAM9 SIT 42", "result": "<10", "unit": "µM"}]}, {"smiles": "C[C@H]1COc2c(N3CCN(C)CC3)c(F)cc3c(=O)c(C(=O)O)cn1c23", "note": "[Levofloxacin, levofloxacin, reference compound]", "values": [{"measurement": "MIC", "setting": "[1]", "result": 2.8, "unit": "µM"}, {"measurement": "MIC", "setting": "[2]; [7]", "result": 2.8, "unit": "µM"}, {"measurement": "MIC", "setting": "[3]", "result": 2.8, "unit": "µM"}, {"measurement": "MIC", "setting": "[4]", "result": 2.8, "unit": "µM"}, {"measurement": "MIC", "setting": "[5]", "result": 2.8, "unit": "µM"}, {"measurement": "MIC", "setting": "[6]; [8]", "result": 2.8, "unit": "µM"}]}]}
